In the assay the target is MEK. Description: Cascade assay for inhibitors of the MAP kinase pathway (In Vitro). The format is biochemical. Here is the method: Incorporation of ^32P into myelin basic protein (MBP) was assayed in the presence of a glutathione S-transferase fusion protein containing p44MAP kinase (GST-MAPK) and a glutathione S-transferase fusion protein containing p45MEK (GST-MEK). The assay solution contained 20 mM HEPES, pH 7.4, 10 mM MgCl2, 1-mM MnCl2, 1 mM EGTA, 50 µM [γ-^32P]ATP, 10 µg GST-MEK, 0.5 µg GST-MAPK and 40 µg MBP in a final volume of 100 µL. […] Compounds were assessed at 10 µM for ability to inhibit incorporation of ^32P.
To ascertain whether compounds were inhibiting GST-MEK or GST MAPK, two additional protocols were employed. In the first protocol, compounds were added to tubes containing GST-MEK, followed by addition of GST-MAPK, MBP and [γ-^32P]ATP.
As usually defined, the IC50 is the midpoint of a concentration-inhibition curve. A high value points to lower potency. Turning to “5-Bromo-3,4-difluoro-2-(4-iodo-2-methyl-phenylamino)-N-(2-piperidin-1-yl-ethyl)-benzamide [Example 55]”, it took 114 nM to reach half-maximal inhibition (IC50).
In the case of “5-Bromo-3,4-difluoro-N-(2-hydroxy-ethyl)-2-(4-iodo-2-methyl-phenylamino)-benzamide [Example 53]”, the IC50 was 47 nM.
Compound “5-Fluoro-N-{3-[4-(2-hydroxy-ethyl)-piperazin-1-yl]-propyl}-2-(4-iodo-2-methyl-phenylamino)-benzamide [Example 90]” registered an IC50 of 604 nM.
`Cc1cc(I)ccc1Nc1cc(F)ccc1C(=O)O` [Example 1, 4-Fluoro-2-(4-iodo-2-methylphenylamino)benzoic acid] gave an IC50 of 19 nM.
With `O=C(O)c1cc(Cl)ccc1Nc1ccc(I)cc1Cl` [Example 5, 5-Chloro-2-(2-chloro-4-iodo-phenylamino)-benzoic acid], half-maximal inhibition (IC50) required 66 nM.
Compound `Cc1cc(I)ccc1Nc1ccc(Cl)cc1C(=O)O` [Example 6, 5-Chloro-2-(4-iodo-2-methyl-phenylamino)-benzoic acid] displayed an IC50 of 71 nM.
`Cc1cc(I)ccc1Nc1ccc(Br)cc1C(=O)O` [Example 8, 5-Bromo-2-(4-iodo-2-methyl-phenylamino)-benzoic acid] gave an IC50 of 86 nM.
Compound `O=C(O)c1cc([N+](=O)[O-])ccc1Nc1ccc(I)cc1Cl` [Example 9, 2-(2-Chloro-4-iodo-phenylamino)-5-nitro-benzoic acid] came in with an IC50 of 97 nM.
In turn, `Cc1c(Nc2cc(F)ccc2C(=O)O)ccc(I)c1F` [Example 10, 4-Fluoro-2-(3-fluoro-4-iodo-2-methyl-phenylamino)-benzoic acid] displayed an IC50 of 101 nM. The IC50 values of the last two compounds are within 1.5-fold of each other.
The compound `Cc1cc(I)ccc1Nc1ccc([N+](=O)[O-])cc1C(=O)O` [Example 11, 2-(4-Iodo-2-methyl-phenylamino)-5-nitro-benzoic acid] registered an IC50 of 128 nM. The IC50 values of the last two compounds are within 1.5-fold of each other.
Turning to `O=C(O)c1cc([N+](=O)[O-])ccc1Nc1ccc(I)cc1F` [Example 12, 2-(2-Fluoro-4-iodo-phenylamino)-5-nitro-benzoic acid], the IC50 came out at 135 nM.
`Cc1cc(Br)ccc1Nc1cc(F)ccc1C(=O)O` [Example 13, 2-(4-Bromo-2-methyl-phenylamino)-4-fluoro-benzoic acid] came in with an IC50 of 178 nM.
The figure for `O=C(O)c1cc([N+](=O)[O-])ccc1Nc1ccc(I)cc1Br` [Example 14, 2-(2-Bromo-4-iodo-phenylamino)-5-nitro-benzoic acid] is 179 nM.
Regarding `Cc1cc(Br)ccc1Nc1c(C(=O)O)ccc(F)c1F` [Example 15, 2-(4-Bromo-2-methyl-phenylamino)-3,4-difluoro-benzoic acid], the 50% inhibitory concentration (IC50) came to 194 nM.
As for `Cc1cc(I)ccc1Nc1c(F)cccc1C(=O)O` [Example 16, 3-Fluoro-2-(4-iodo-2-methyl-phenylamino)-benzoic acid], inhibition was half-maximal at 323 nM (IC50).
Regarding `COc1cc(I)ccc1Nc1c(C(=O)O)ccc(F)c1F` [Example 17, 3,4-Difluoro-2-(4-iodo-2-methoxy-phenylamino)-benzoic acid], 434 nM corresponded to half-maximal inhibition (IC50).
As to `Cc1cc(I)ccc1Nc1cc(Cl)ccc1C(=O)O` [Example 18, 4-Chloro-2-(4-iodo-2-methyl-phenylamino)-benzoic acid], the half-inhibitory concentration (IC50) was found to be 446 nM.
With `Cc1cc(I)ccc1Nc1ccc(F)cc1C(=O)O` [Example 20, 5-Fluoro-2-(4-iodo-2-methyl-phenylamino)-benzoic acid], the IC50 was determined as 557 nM.
With `Cc1cc(I)ccc1Nc1ccc(I)cc1C(=O)O` [Example 21, 5-Iodo-2-(4-iodo-2-methyl-phenylamino)-benzoic acid], the IC50 is 569 nM. The IC50 values of the last two compounds are within 1.5-fold of each other.
As for `Cc1c(Nc2cc(F)ccc2C(=O)O)ccc(I)c1Cl` [Example 23, 4-Fluoro-2-(3-chloro-4-iodo-2-methyl-phenylamino)-benzoic acid], half-maximal inhibition (IC50) was put at 1590 nM.
With `COc1ccc(Nc2ccc(I)cc2)c(C(=O)O)c1` [Example 24, 2-(4-Iodo-phenylamino)-5-methoxy-benzoic acid] the figure was 1940 nM.
In turn, `O=C(O)c1cccc(Cl)c1Nc1ccc(I)cc1Cl` [Example 25, 3-Chloro-2-(2-chloro-4-iodo-phenylamino)-benzoic acid] yielded an IC50 of 2360 nM.
With `Cc1ccc(Nc2ccc(I)cc2C)c(C(=O)O)c1` [Example 28, 5-Methyl-2-(4-iodo-2-methyl-phenylamino)-benzoic acid] the figure was 3670 nM; with `Cc1cc(I)ccc1Nc1cccc(Cl)c1C(=O)O` [Example 29, 2-Chloro-6-(4-iodo-2-methyl-phenylamino)-benzoic acid], 5330 nM.
In the case of `Cc1cc(I)ccc1Nc1ccc(Cl)cc1C(=O)NCCO` [Example 31, 5-Chloro-N-(2-hydroxyethyl)-2-(4-iodo-2-methyl-phenylamino)-benzamide], the IC50 amounted to 226 nM.
The compound `COc1ccc(NC(=O)c2ccc(OC)c([N+](=O)[O-])c2)cc1` [Example 32, 4-Methoxy-N-(4-methoxy-phenyl)-3-nitro-benzamide] gave an IC50 of 28 nM.
The figure for `Cc1cc(I)ccc1Nc1cc(F)ccc1C(N)=O` [Example 33, 4-Fluoro-2-(4-iodo-2-methyl-phenylamino)-benzamide] is 52 nM.
On to `CNC(=O)c1ccc(F)cc1Nc1ccc(I)cc1C` [Example 34, 4-Fluoro-2-(4-iodo-2-methyl-phenylamino)-N-methyl-benzamide], for which half-maximal inhibition (IC50) was put at 98 nM.
In turn, `CCNC(=O)c1ccc(F)cc1Nc1ccc(I)cc1C` [Example 35, N-Ethyl-4-fluoro-2-(4-iodo-2-methyl-phenylamino)-benzamide] came in with an IC50 of 121 nM.
With `Cc1cc(I)ccc1Nc1cc(F)ccc1C(=O)N(C)C` [Example 36, 4-Fluoro-2-(4-iodo-2-methyl-phenylamino)-N,N-dimethyl-benzamide] the figure was 129 nM.
With `Cc1cc(I)ccc1Nc1cc(F)ccc1C(=O)Nc1nnn[nH]1` [Example 37, 4-Fluoro-2-(4-iodo-2-methyl-phenylamino)-N-(1H-tetrazol-5-yl)-benzamide] the figure was 237 nM; with `Cc1cc(I)ccc1Nc1ccc(Br)cc1C(N)=O` [Example 38, 5-Bromo-2-(4-iodo-2-methyl-phenylamino)-benzamide], 412 nM; with `Cc1cc(I)ccc1Nc1ccc(Cl)cc1C(=O)N(C)C` [Example 39, 5-Chloro-2-(4-iodo-2-methyl-phenylamino)-N,N-dimethyl-benzamide], 497 nM.
Compound `Cc1cc(I)ccc1Nc1ccc(Cl)cc1C(=O)NCC(=O)O` [Example 40] registered an IC50 of 651 nM.
Regarding `CCCNC(=O)c1ccc(F)cc1Nc1ccc(I)cc1C` [Example 41, 4-Fluoro-2-(4-iodo-2-methyl-phenylamino)-N-propyl-benzamide], the IC50 came to 872 nM.
With `Cc1cc(I)ccc1Nc1ccc(Br)cc1C(=O)NCCO` [Example 42, 5-Bromo-N-(2-hydroxy-ethyl)-2-(4-iodo-2-methyl-phenylamino)-benzamide] the figure was 920 nM.
In turn, `CCN(CC)C(=O)c1ccc(F)cc1Nc1ccc(I)cc1C` [Example 43, N,N-Diethyl-4-fluoro-2-(4-iodo-2-methyl-phenylamino)-benzamide] gave an IC50 of over 1000 nM.
For the compound `Cc1cc(I)ccc1Nc1cc(F)ccc1C(=O)NCCCN1CCN(CCO)CC1` [Example 44, 4-Fluoro-N-{3-[4-(2-hydroxy-ethyl)-piperazin-1-yl]-propyl}-2-(4-iodo-2-methyl-phenylamino)-benzamide], the IC50 was found to be 1480 nM.

The values are drawn from EP0993437B1, “2-(4-BROMO OR 4-IODO PHENYLAMINO) BENZOIC ACID DERIVATIVES AND THEIR USE AS MEK INHIBITORS” (Warner-Lambert Company LLC, priority 1997, dated 1999).
